In patent US5780250A, “Immunoassay standards for polyaromatic hydrocarbon detection” (Strategic Diagnostics, Inc., priority 1996, dated 1998):

Legend:
[1] = Study of Standard Stability (B/Bo as a function of time of storage); conditions: after 200 days of storage at 4° C. (FIG. 2)
Procedure: The vials were then capped with Teflon coated caps and crimped. The vials were then separated into five groups. Each group was then placed at a different temperature (-20° C., 2°-8° C., 20°-25° C., 37° C. and 50° C.) in an upright position. Standards were tested for B/Bo at specified intervals by assaying each standard level in duplicate for each temperature. The results were then graphed as a function of time (x) versus B/Bo(y) by temperature level.

[2] = system: rabbit anti-PAH antisera (anti-analyte antibody on paramagnetic particles); conditions: for 50% B/Bo: concentration giving mean absorbance 0.5 times that of the Diluent/Zero Standard, competitive immunoassay, 450 nm; for LDD (least detectable dose): estimated as the dose needed to generate a B/Bo of 90%

Structure (SMILES) | apparent increase in B/Bo on storage [1] [%] | 50% B/Bo [2] [ppb] | LDD (least detectable dose) [2] [ppb]
c1ccc2c(c1)ccc1ccccc12 [phenanthrene, reference compound] | 25 | 16.5 | 0.70
c1ccc2c(c1)ccc1c3ccccc3ccc21 [chrysene] | – | 7.8 | 0.40
c1ccc2c(c1)Cc1ccccc1-2 [fluorene] | – | 35.2 | 1.65
c1ccc2c(c1)-c1cccc3c1c-2cc1ccccc13 [benzo(b)fluoranthene] | – | 54.2 | 0.91
c1ccc2c(c1)cc1ccc3cccc4ccc2c1c34 [benzo(a)pyrene] | – | 6.9 | 0.50
c1ccc2cc3c(cc2c1)-c1cccc2cccc-3c12 [benzo(k)fluoranthene] | – | 524 | 0.77
c1ccc2c(c1)-c1cccc3cccc-2c13 [fluoranthene] | – | 4.7 | 0.32
c1ccc2cc3ccccc3cc2c1 [anthracene] | – | 11.0 | 0.54
c1ccc2cc3c(ccc4ccccc43)cc2c1 [1,2 benzoanthracene] | – | 28.4 | 0.77
c1cc2ccc3cccc4ccc(c1)c2c34 [pyrene] | – | 7.7 | 0.20
c1ccc2c(c1)-c1ccc3ccc4cccc5cc-2c1c3c45 [indeno(1,2,3-c,d)pyrene] | – | 27.2 | 0.78
